The IC50 is the concentration that gives 50% inhibition. In general, EC50 refers to the midpoint of the concentration-response curve.

Experimental findings from patent publication US10316017B2, “COT modulators and methods of use thereof” (Gilead Sciences, Inc., priority 2015, dated 2019) are described below.

Test [1] has as its target T1, human Cot catalytic domain (30-397 amino acids) (Homo sapiens, UniProt P41279).
T1 construct: Purified recombinant human Cot catalytic domain (30-397 amino acids) was purchased from Cama Biosciences; purchased Cama Biosciences (so in the source)
The test can be described thus: High Throughput Cot Biochemical Assay (KinEASE TR-FRET). The note with it: read-out: IC50 HTRF. In outline: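 TR-FRET readout: Eu-labeled phospho-specific antibody binds XL665-tagged STK3 peptide after phosphorylation by Cot (aa 30-397, 5 nM). Conditions: 400 μM ATP, 1 μM peptide, MOPS pH 7.0 buffer with MgOAc, DTT, BSA, NP-40, glycerol; 0.1% DMSO.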
Background: TR-FRET usually uses a lanthanide donor and a delayed reading to cut background.

Test [2] relates to TNFα production in LPS-stimulated human monocytes. The test can be described thus: Cot Monocyte TNFα Cell Based Assay. Particulars: Homo sapiens, Monocyte, read-out: EC50 TNF. In outline:
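TR-FRET read-out of total secreted TNFα, normalized as % control (unstimulated = 0%, LPS-stimulated = 100%). Cells (5,000/well) were exposed to compound 1 h at 37 °C, then to 50 pg/ml LPS for a further 4 h.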

[3] abbreviates: Cot KinEASE TR-FRET (HTRF) biochemical assay, 400 μM ATP.
The mark [4] stands for this setting: TNFα in LPS-stimulated human monocytes.
[5] abbreviates: Cot KinEASE TR-FRET, 400 μM ATP.
Where [6] appears, read: LPS-stimulated human monocytes, TNFα TR-FRET.
Where [7] appears, read: Cot biochemical HTRF (KinEASE TR-FRET) assay.

Read-outs that look alike come from different tables or passages of the source.

T1 sequence (P41279 30-397): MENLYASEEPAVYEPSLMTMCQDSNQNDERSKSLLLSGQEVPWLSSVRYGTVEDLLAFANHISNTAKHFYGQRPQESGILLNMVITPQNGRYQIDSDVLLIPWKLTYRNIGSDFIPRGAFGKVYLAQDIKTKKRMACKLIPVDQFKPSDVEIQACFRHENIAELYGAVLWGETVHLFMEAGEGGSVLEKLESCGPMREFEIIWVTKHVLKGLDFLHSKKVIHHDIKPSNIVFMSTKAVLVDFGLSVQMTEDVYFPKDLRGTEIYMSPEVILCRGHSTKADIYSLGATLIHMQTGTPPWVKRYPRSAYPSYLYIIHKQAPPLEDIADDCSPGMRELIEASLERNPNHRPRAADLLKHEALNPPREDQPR

`N#Cc1cnc2c(Cl)cc(N[C@@H](c3ccc(F)cc3)c3cnn(C(F)F)n3)cc2c1Nc1cnc(F)c(F)c1` [Example 378, (S)-8-chloro-6-(((2-(difluoromethyl)-2H-1,2,3-triazol-4-yl)(4-fluorophenyl)methyl)amino)-4-((5,6-difluoropyridin-3-yl)amino)quinoline-3-carbonitrile]: the 50% inhibitory concentration (IC50) in test [1] (setting [3]) was above 10000 nM. In addition, the 50% effective concentration (EC50) in test [2] (setting [4]) was above 10000 nM.
For `[2H][C@](Nc1cc(Cl)c2ncc(C#N)c(Nc3c(F)ccc(Cl)c3F)c2c1)(c1cccc(C#N)c1)c1cn(C2CC2)nn1` [Example 275, (S)-8-chloro-4-((3-chloro-2,6-difluorophenyl)amino)-6-(((3-cyanophenyl)(1-cyclopropyl-1H-1,2,3-triazol-4-yl)methyl-d)amino)quinoline-3-carbonitrile], the concentration for half-maximal inhibition (IC50) in test [1] (setting [3]) worked out at 23 nM. The half-maximal effective concentration (EC50) in test [2] (setting [4]) turned out to be 246 nM.
Consider `[2H][C@@](Nc1cc(C#N)c2ncc(C#N)c(NCC(C)(C)C)c2c1)(c1cn(-c2cccnc2)nn1)c1ccccc1Cl` [Example 1004, (S)-6-(((2-chlorophenyl)(1-(pyridin-3-yl)-1H-1,2,3-triazol-4-yl)methyl-d)amino)-4-(neopentylamino)quinoline-3,8-dicarbonitrile], for which the IC50 in test [1] (setting [5]) was 33 nM. In addition, the concentration giving a half-maximal response (EC50) in test [2] (setting [6]) is at least 1000 nM.
For `[2H][C@](Nc1cc(Cl)c2ncc(C#N)c(NCC3(C(F)(F)F)CC3)c2c1)(c1ccc(F)cc1)c1cn(C2CC2)nn1` [Example 176], in test [1] (setting [3]), the half-inhibitory concentration (IC50) is 83 nM. Further, the EC50 in test [2] (setting [4]) stood at 809 nM.
The matching figures for `[2H][C@](Nc1cc(-c2ccccn2)c2ncc(C#N)c(NCC(C)(C)C)c2c1)(c1ccc(F)cc1)c1cn(C2CC2)nn1` [Compound 28]: 2000 nM and above 1000 nM.
On to `CC(C)(C)CNc1c(C#N)cnc2c(C#N)cc(N[C@@H](c3ccc(F)cc3)c3cn(C4(c5cccnc5)CC4)nn3)cc12` [Example 974, (S)-6-(((4-fluorophenyl)(1-(1-(pyridin-3-yl)cyclopropyl)-1H-1,2,3-triazol-4-yl)methyl)amino)-4-(neopentylamino) quinoline-3,8-dicarbonitrile], for which the IC50 in test [1] (setting [5]) is 46 nM. The half-maximal effective concentration (EC50) in test [2] (setting [6]) amounted to 46 nM.
Consider `[2H][C@](Nc1cc(Cl)c2ncc(C#N)c(N[C@H](CC)c3ccccc3)c2c1)(c1cccc(C#N)c1)c1c[nH]nn1` [Compound 15], for which the half-inhibitory concentration (IC50) in test [1] (setting [3]) is 4 nM. In addition, the 50% effective concentration (EC50) in test [2] (setting [4]) was found to be 134 nM.
Regarding `Cc1c(-c2ccnnc2)cccc1[C@H](Nc1cc(Cl)c2ncc(C#N)c(NCC(C)(C)C)c2c1)c1cn(C2(C(F)F)CC2)nn1` [Example 1123, (S)-8-chloro-6-(((1-(1-(difluoromethyl)cyclopropyl)-1H-1,2,3-triazol-4-yl)(2-methyl-3-(pyridazin-4-yl)phenyl)methyl)amino)-4-(neopentylamino)quinoline-3-carbonitrile], in test [1] (setting [5]), the half-inhibitory concentration (IC50) amounted to 2 nM. In addition, the concentration giving a half-maximal response (EC50) in test [2] (setting [6]) came out at 42 nM.
As for `CC(C)(CO)CNc1c(C#N)cnc2c(C#N)cc(N[C@H](c3cn(C4(C)CC4)nn3)c3ccccc3Cl)cc12` [Example 1035, (S)-6-(((2-chlorophenyl)(1-(1-methylcyclopropyl)-1H-1,2,3-triazol-4-yl)methyl)amino)-4-((3-hydroxy-2,2-dimethylpropyl)amino)quinoline-3,8-dicarbonitrile], in test [1] (setting [5]), the half-maximal inhibitory concentration (IC50) is 19 nM. Also, the concentration giving a half-maximal response (EC50) in test [2] (setting [6]) was 316 nM.
The matching figures for `[2H][C@](Nc1cc(Cl)c2ncc(C#N)c(Nc3cccc(Cl)c3)c2c1)(c1ccc(F)cc1)c1cn(C2CC2)nn1` [Example 947, (S)-8-chloro-4-((3-chlorophenyl)amino)-6-(((1-cyclopropyl-1H-1,2,3-triazol-4-yl)(4-fluorophenyl)methyl-d)amino)quinoline-3-carbonitrile]: 14 nM and 282 nM.
With `[2H][C@](Nc1cc(Cl)c2ncc(C#N)c(NCC(C)(C)CO)c2c1)(c1ccc(F)cc1)c1cn(C2CC2)nn1` [Example 308, (S)-8-chloro-6-(((1-cyclopropyl-1H-1,2,3-triazol-4-yl)(4-fluorophenyl)methyl-d)amino)-4-((3-hydroxy-2,2-dimethylpropyl)amino) quinoline-3-carbonitrile], in test [1] (setting [3]), the IC50 came to 26 nM. Further, the EC50 in test [2] (setting [4]) turned out to be 361 nM.
As to `[2H][C@](Nc1cc(-c2ccc(F)nc2)c2ncc(C#N)c(NCC(C)(C)C)c2c1)(c1ccc(F)cc1)c1cn(C2CC2)nn1` [Example 139, (S)-6-(((1-cyclopropyl-1H-1,2,3-triazol-4-yl)(4-fluorophenyl)methyl-d)amino)-8-(6-fluoropyridin-3-yl)-4-(neopentylamino) quinoline-3-carbonitrile], the 50% inhibitory concentration (IC50) in test [1] (setting [3]) was determined as 33 nM. In test [2] (setting [4]), the concentration for a half-maximal effect (EC50) came out at 276 nM.
On to `CC(C)(C)N1CCC(n2cc([C@@H](Nc3cc(Cl)c4ncc(C#N)c(Nc5ccc(O)c(Cl)c5)c4c3)c3ccc(Cl)cc3)nn2)CC1` [Example 701, (S)-6-(((1-(1-(tert-butyl)piperidin-4-yl)-1H-1,2,3-triazol-4-yl)(4-chlorophenyl)methyl)amino)-8-chloro-4-((3-chloro-4-hydroxyphenyl)amino) quinoline-3-carbonitrile], for which the IC50 in test [1] (setting [7]) was 48 nM. Also, the EC50 in test [2] (setting [4]) is 795 nM.
Consider `CC(C)(C)CNc1c(C#N)cnc2c(Cl)cc(N[C@@H](c3ccc(F)cc3)c3cn(-c4ccncc4)nn3)cc12` [Example 393, (S)-8-chloro-6-(((4-fluorophenyl)(1-(pyridin-4-yl)-1H-1,2,3-triazol-4-yl)methyl)amino)-4-(neopentylamino)quinoline-3-carbonitrile], for which the IC50 in test [1] (setting [3]) stood at 179 nM. In addition, the concentration giving a half-maximal response (EC50) in test [2] (setting [4]) stood at 333 nM.
The matching figures for `CC(C)(C)CNc1c(C#N)cnc2c(C#N)cc(N[C@@H](c3cccc(C(=O)N4CC(F)(F)C4)c3)c3cn(C4CC4)nn3)cc12` [Example 56, (S)-6-(((1-cyclopropyl-1H-1,2,3-triazol-4-yl)(3-(3,3-difluoroazetidine-1-carbonyl)phenyl)methyl)amino)-4-(neopentylamino) quinoline-3,8-dicarbonitrile]: 3 nM and 184 nM.
As for `[2H][C@](Nc1cc(Cl)c2ncc(C#N)c(NC3CCOCC3(C)C)c2c1)(c1ccc(F)cc1)c1cn(C2CC2)nn1` (stereo partly drawn) [Example 190, 8-chloro-6-(((S)-(1-cyclopropyl-1H-1,2,3-triazol-4-yl)(4-fluorophenyl)methyl-d)amino)-4-((3,3-dimethyltetrahydro-2H-pyran-4-yl)amino)quinoline-3-carbonitrile], in test [1] (setting [3]), the concentration for half-maximal inhibition (IC50) amounted to 3 nM. Besides, the EC50 in test [2] (setting [4]) turned out to be 55 nM.
On to `CCC[C@@H](Nc1c(C#N)cnc2c(Cl)cc(N[C@@H](c3ccccc3)c3cn(C4CCN(C(C)(C)C)CC4)nn3)cc12)c1ccccc1` [Example 558, 6-(((S)-(1-(1-(tert-butyl)piperidin-4-yl)-1H-1,2,3-triazol-4-yl)(phenyl)methyl)amino)-8-chloro-4-(((R)-1-phenylbutyl)amino)quinoline-3-carbonitrile], for which the half-maximal inhibitory concentration (IC50) in test [1] (setting [7]) worked out at 11 nM. Besides, in test [2] (setting [4]), the EC50 was 199 nM.
Consider `[2H][C@](Nc1cc(Cl)c2ncc(C#N)c(NCC(C)(C)C)c2c1)(c1cn(CC(F)(F)F)nn1)c1ccccc1Cl` [Example 93, 8-chloro-6-(((2-chlorophenyl) (1-(2,2,2-trifluoroethyl)-1H-1,2,3-triazol-4-yl)methyl-d)amino)-4-(neopentylamino) quinoline-3-carbonitrile], for which the half-maximal inhibitory concentration (IC50) in test [1] (setting [3]) amounted to 59 nM. Also, the concentration for a half-maximal effect (EC50) in test [2] (setting [4]) stood at 832 nM.
On to `CC(C)(C)N1CCC(n2cc([C@@H](Nc3cc(Cl)c4ncc(C#N)c(NC[Si](C)(C)C)c4c3)c3ccccc3)nn2)CC1` [Example 489, (S)-6-(((1-(1-(tert-butyl)piperidin-4-yl)-1H-1,2,3-triazol-4-yl)(phenyl)methyl)amino)-8-chloro-4-(((trimethylsilyl)methyl)amino)quinoline-3-carbonitrile], for which the concentration for half-maximal inhibition (IC50) in test [1] (setting [7]) came to 10 nM. Also, the EC50 in test [2] worked out at 184 nM.
Regarding `CC[C@@H](Nc1c(C#N)cnc2c(Cl)cc(N[C@@H](c3cccc(C(=O)N4CC(O)C4)c3)c3c[nH]nn3)cc12)c1ccccc1` [Example 560], in test [1] (setting [7]), the concentration for half-maximal inhibition (IC50) was found to be 3 nM. For the same compound, the EC50 in test [2] (setting [4]) was determined as 8830 nM.
Regarding `N#Cc1cnc2c(Cl)cc(N[C@@H](c3ccccc3)c3cn(Cc4ccccn4)nn3)cc2c1Nc1ccc(F)c(Cl)c1` [Example 729, (S)-8-chloro-4-((3-chloro-4-fluorophenyl)amino)-6-((phenyl (1-(pyridin-2-ylmethyl)-1H-1,2,3-triazol-4-yl)methyl)amino)quinoline-3-carbonitrile], the 50% inhibitory concentration (IC50) in test [1] (setting [7]) is 32 nM. The EC50 in test [2] (setting [4]) is 532 nM.
The matching figures for `Cc1cccc(Nc2c(C#N)cnc3c(Cl)cc(N[C@@H](c4ccc(Cl)cc4)c4cn(C5CCN(C(C)(C)C)CC5)nn4)cc23)c1` [Example 741, (S)-6-(((1-(1-(tert-butyl)piperidin-4-yl)-1H-1,2,3-triazol-4-yl)(4-chlorophenyl)methyl)amino)-8-chloro-4-(m-tolylamino)quinoline-3-carbonitrile]: 122 nM and 1240 nM.
Take `CN(C)C(=O)c1cccc([C@H](Nc2cc(Cl)c3ncc(C#N)c(Nc4ccc(F)c(Cl)c4)c3c2)c2cn(C3CCN(C(C)(C)C)CC3)nn2)c1` [Compound 20]: the IC50 in test [1] (setting [3]) was 1 nM. For the same compound, the concentration for a half-maximal effect (EC50) in test [2] (setting [4]) turned out to be 41 nM.
